# Data published in patent publication US8946144B2, “Phosphonated glycopeptide and lipoglycopeptide antibiotics and uses thereof for the prevention and treatment of bone and joint infections” (The Medicines Company, priority 2006, dated 2015).
# Key:
# [1] = Regeneration of parent drug from bone powder-bound prodrug; type: in vitro ADME; conditions: 24 h incubation, 37° C.
# Protocol: Amounts of parent drug “regenerated” from the phosphonated prodrug were measured as follows. Washed bone powder-bound prodrugs from the above experiment were resuspended in 400 μL PBS+2% DMSO or in 400 μL 50% (v/v in PBS+2% DMSO) human or rat serum. The suspension was incubated overnight at 37° C., centrifuged at 13,000 rpm for 2 min and the supernatant was recovered. The amount of regenerated parent drug in the supernatant was determined by measurements using the microbiological assays that were previously described for the prodrugs themselves. The amount of released drug from prodrug was deduced from standard curves of known amounts of parent drug that were used as reference for each experiment. The amount of regenerated drug assessed by this bioassay was corroborated by MIC determination. The percentage of drug regenerated in PBS or serum after the overnight incubation (Table 2) was deduced from the difference between the amount of bound prodrug and the amount of regenerated drug (not shown).
# [2] = tested on: S. aureus strain ATCC13709; assay: Antibacterial susceptibility (MIC) in the presence of 50% serum; type: cell-based; conditions: S. aureus ATCC 13709
# Protocol: (§1) Susceptibility of S. aureus strain ATCC13709 to the commercial antibiotics and synthesized compounds was determined by following the guidelines set by the Clinical and Laboratory Standards Institute (formerly the National Committee for Clinical Laboratory Standards) (M26-A). Compounds were diluted two-fold serially in either DMSO (Vancomycin 4, Oritavancin 8, compounds 10, 31, 33, 39, 44, 50, 60, 65), DMF (compounds 18 and 21) or in PBS (compound 6) and transferred to cation-adjusted Mueller Hinton broth (CAMHB; Becton Dickinson). 50 μL of compounds diluted in CAMHB was mixed with […] of bacteria diluted in CAMHB in 96-well microtiter plates. The final number of micro-organisms in the assay was 5×10^5 c.f.u. per mL and the final concentration of DMSO or DMF in the assay, if present, was 1.25%. Assays were set up in duplicate and incubated at 37° C. for 18 h. The concentration of compound that inhibited visible growth was reported as the minimum inhibitory concentration (MIC).
# Susceptibility testing experiments were also carried out in the presence of serum. These experiments were carried out similar to the susceptibility testing with the following modifications. 75 μL of compounds diluted in CAMHB was mixed with 75 μL of bacteria diluted in 100% serum from any given source (commercial pooled mouse serum (MS) and human serum (HS), Equitech-Bio Inc.). The final concentration of animal serum in the assay was 50% and the concentrations of all other components were identical to those described for susceptibility testing.
# [3] = tested on: S. aureus strain ATCC13709; assay: Antibacterial susceptibility (MIC) in CAMHB; type: cell-based; conditions: S. aureus ATCC 13709; cation adjusted Mueller-Hinton broth; 37° C., 18 h
# Protocol: as §1
Structure (SMILES),% Conversion (prodrug converted to parent drug) ([1]; 50% rat serum) [%],% Conversion (prodrug converted to parent drug) ([1]; PBS),"Minimum inhibitory concentration, CAMHB + 50% Human Serum [2] [µg/mL]","Minimum inhibitory concentration, CAMHB + 50% Mouse Serum [2] [µg/mL]","Minimum inhibitory concentration, CAMHB + 50% Rat Serum [2] [µg/mL]","Minimum inhibitory concentration, CAMHB [3] [µg/mL]"
CC(C)C[C@H](C(=O)N[C@H]1C(=O)N[C@@H](CC(N)=O)C(=O)N[C@H]2C(=O)N[C@H]3C(=O)N[C@H](C(=O)N[C@H](C(=O)O)c4cc(O)cc(O)c4-c4cc3ccc4O)[C@H](O[C@H]3C[C@](C)(N)[C@@H](O)[C@H](C)O3)c3ccc(c(Cl)c3)Oc3cc2cc(c3O[C@@H]2O[C@H](CO)[C@@H](O)[C@H](O)[C@H]2O[C@H]2C[C@](C)(NCc3ccc(-c4ccc(Cl)cc4)cc3)[C@@H](O)[C@H](C)O2)Oc2ccc(cc2Cl)[C@H]1O)N(C)C(=O)OCOC(=O)CCCC(P(=O)(O)O)P(=O)(O)O [Compound 60],0.05,<LOD,>32,32,32,32
CC(C)C[C@H](C(=O)N[C@H]1C(=O)N[C@@H](CC(N)=O)C(=O)N[C@H]2C(=O)N[C@H]3C(=O)N[C@H](C(=O)N[C@H](C(=O)O)c4cc(O)cc(O)c4-c4cc3ccc4O)[C@H](O[C@H]3C[C@](C)(N)[C@@H](O)[C@H](C)O3)c3ccc(c(Cl)c3)Oc3cc2cc(c3O[C@@H]2O[C@H](CO)[C@@H](O)[C@H](O)[C@H]2O[C@H]2C[C@](C)(NCc3ccc(-c4ccc(Cl)cc4)cc3)[C@@H](O)[C@H](C)O2)Oc2ccc(cc2Cl)[C@H]1O)N(C)C(=O)OCOC(=O)CCC(P(=O)(O)O)P(=O)(O)O.O=C(O)C(F)(F)F.O=C(O)C(F)(F)F [Compound 65],26.4,0.2%,4,0.5,1,8
